What was measured:
[1] = Solubility of ketoester coordination complex
Procedure: One suitable coordination complex may be made, for example, by dissolving 10 mg ferric nitrate nonahydrate, in 1 ml water with stirring at room temperature until the solution is clear with all crystals dissolved; to the aqueous iron solution, 1 ml MAA is added with rapid stirring for 5-50 minutes or more to allow formation of the coordination complex. […] Other compositions include the following: micellar ketoester-zinc-ketoester, Zn-MNP; and micellar ketoester-copper-ketoester, Cu-MNP.
A process for novel synthesis of an MNP from iron salt is as follows: The aqueous saturated solution of 1 g ferric chloride hexahydrate is dissolved in 10 ml EAA with rapid stirring for 1 minute or more to the formation of the coordination complex.

[2] = tested on: Petunia; experiment: Effective foliar application dose of safened ketoester formulations (synergism EAA/cosolvent); assay type: in vivo
[3] = tested on: waxy foliar surfaces of oleander leaves; experiment: Effective spreading of water droplets on waxy foliar surfaces, determined visually; conditions: oleander leaf, visual determination
Text: Experimental biology investigations show an exemplary synergism of EAA to random block copolymer (RBC) using the formulations of the invention to visually determine the effect of concentration of the compounds on the effective spreading of water droplets on waxy foliar surfaces of oleander leaves. The following is an exemplary effective spreading of water droplet on a waxy leaf based on EAA synergist: • Leaf Plant Type Effective water droplet spreading • RBC EAA RBC+EAA • Oleander 0.6% 1% 0.3%+0.86%

[4] = Critical micelle concentration; assay type: physicochemical
Text: Ketoesters also are a source of metabolizable micellar nanoparticles for transepidermal transport; i.e., at or above the CMC of a ketoester. For example, when applied to a leaf at or above the CMC 6.48 mol % of the β-ketoester, EAA is an effective wetter and spreader of water-based solutions. This is particularly true of EAA when applied at CMC on leaves of green plants. Furthermore, by bringing the ketoester to CMC, other compounds in solution synergistically rise to CMC. For example, in the embodiments disclosed herein, physical characteristics of the CMC of the ketoester, MAA, are applied to create zinc depots.

CCOC(=O)CC(C)=O.[Fe+3] [Fe-EAA, ferric(III)-ethyl acetoacetate]
solubility in IPA ([1]; IPA): soluble | solubility in water ([1]; water): insoluble

CCOC(=O)CC(C)=O [EAA, ethyl acetoacetate]
effective foliar application dose [2]: 100 mM | Effective water droplet spreading (concentration) [3]: 1% | CMC (critical micelle concentration) [4]: 6.48 mol %
